In test [1] the test system is Sinapis alba myrosinase. In words: HPLC progress curves, pooled wavelengths. The conditions noted are these: read-out: Km (μM) / HPLC, 0.1 M phosphate pH 7.4, 37 °C. Format: biochemical.
Test [2] deals with Sinapis alba myrosinase. In words: HPLC progress curves, pooled wavelengths. The conditions noted are these: read-out: Km (μM) / HPLC; 0.1 M phosphate pH 7.4, 37 °C; 14.52 U/ml myrosinase. It counts as biochemical.

Read-outs that look alike come from different tables or passages of the source.

The source of these data is paper PMC4305510 (Analytical biochemistry, 2014).

Regarding `C=CC/C(=N/OS(=O)(=O)O)S[C@@H]1O[C@H](CO)[C@@H](O)[C@H](O)[C@H]1O` [compound 4, Sinigrin], the Km with Sinapis alba myrosinase [1] (4.27 U/ml myrosinase) came out at 168 ± 17 µM.

`O=S(=O)(O)O/N=C(\S[C@@H]1O[C@H](CO)[C@@H](O)[C@H](O)[C@H]1O)c1ccccc1` [compound 5, Phenyl glucosinolate]: in the test on Sinapis alba myrosinase [2], the Km is 1160 ± 70 µM.

Turning to `O=S(=O)(O)O/N=C(/Cc1ccccc1)S[C@@H]1O[C@H](CO)[C@@H](O)[C@H](O)[C@H]1O` [compound 6, glucotropaeolin], the Km with Sinapis alba myrosinase [1] (4.84 U/ml myrosinase) was 90.6 ± 6.8 µM.
